Measured values as given in patent publication US3966957A, “Method for controlling emesis with N-(1-substituted-3-pyrrolidinyl)benzamides and thiobenzamides” (A. H. Robins Company, Incorporated, priority 1974, dated 1976).

Legend:
[1] = Catalepsy in rats (IP), modified Tedeschi procedure; assay type: in vivo, rat; conditions: rat, in vivo; IP administration in rats; as free base (Table 7)
Protocol: (§3) Drugs were blind tested with positive and negative controls. […] The modified procedure is as follows.
(§4) Groups of six rats are dosed (IP) with drugs in saline solution and tested hourly over a six hour period. A phenothiazine or non-phenothiazine reference standard is tested concomitantly as a positive control; negative controls receive only the saline vehicle. After administration the rats are positioned hourly with each foot on a No. 7 rubber stopper. A rat is considered cataleptic if it remains immobile on the stoppers for five seconds or longer at two or more consecutive hourly observation intervals.

[2] = system: apomorphine-induced emesis; assay: Reduction of apomorphine-induced emesis in dogs, subcutaneous administration; assay type: in vivo, dog; conditions: for ED50: Canis lupus familiaris, sc, read-out: ED50, Anti-Emetic Effect of Subcutaneous Administration
Protocol: (§1) The anti-emetic properties of the compounds of Formulae I and II were established using a modification of the methods of Chen and Ensor, J. Pharmac. Exp. Ther. 98: 245-250 (1950) and of Leonard et al, J. Pharmac. Exp. Ther. 154, 339-345 (1966). Drug activity was assessed by its ability to reduce the frequency of apomorphine-induced emesis in dogs. The dogs were prescreened for fairly constant emetic responses to the subcutaneous administration of 0.1 mg./kg. of apomorphine hydrochloride, and those which vomited five or more times in the 40-minute period after apomorphine administration were selected for drug studies.
(§2) Groups of three dogs were used in preliminary tests and for the determinations of time of peak drug effect. Dose response curves were usually obtained using four drug-treated groups; each group contained at least three dogs. The dogs were fed approximately 17 hours prior to a test. Drugs were administered and at suitable intervals the dogs received 0.1 mg/kg of apormorphine hydrochloride subcutaneously. Frequency of emesis was determined during the next 40 minutes and emesis was counted as the actual expulsion of stomach contents.
In oral studies, drugs were administered in gelatin capsules (controls received an empty capsule). In the subcutaneous studies, drugs were administered in distilled water and/or polyethylene glycol-300.
Dogs were re-used at intervals of not less than one week. The ED50 is the dose which reduces the frequency of emesis of drug treated dogs to a value 50% below that of controls. Mean frequency of emesis for each drug treated group was compared with a mean control value derived by pooling the prior control emetic frequencies for all dogs used on that test day. The difference is expressed as a percentage decrease relative to controls. The per cent decrease in mean frequency of emesis for each drug-treated group (ordinate) was plotted against log dose (abscissa) on semi-log graph sheets. The ED50 was calculated by the method of Goldstein (Biostatistics, An Introductory Test; Pages 156-161; The MacMillan Co., New York, 1964).
Three dogs selected as described above were injected subcutaneously with 5.0 mg./kg. (3.12 mg./kg. expressed as free base) of the test drug 4-amino-N-(1-cyclohexyl-3-pyrrolidinyl)-N-methyl-benzamide cyclohexane-sulfamate from compound Example 4. One hour later apormorphine hydrochloride was administered in doses of 0.1 mg./kg. subcutaneously. Complete blockage of emesis (-100%) was observed over the 40-minute period following administration of apomorphine hydrochloride. […] (0.27 mg./kg. expressed as free base) was established for subcutaneous administration of the test drug.
Using the technique described in the foregoing general procedure and pharmacology in Example 1 for subcutaneous evaluation of test drugs against apomorphine induced emesis, results for additional compounds were obtained as shown in Table 4.

[3] = system: apomorphine-induced emesis; assay: Reduction of apomorphine-induced emesis in dogs, oral administration; assay type: in vivo, dog
Protocol: as §1
as §2, with “Drugs were administered and at suitable intervals the dogs received 0.1 mg/kg of apormorphine hydrochloride subcutaneously.” left out, “contents. […]” for “contents.”
Dogs were re-used at intervals of not less than one week. […] The difference is expressed as a percentage decrease relative to controls. […] The ED50 was calculated by the method of Goldstein (Biostatistics, An Introductory Test; Pages 156-161; The MacMillan Co., New York, 1964). […]

catalepsy = assay: Catalepsy in rats (IP), modified Tedeschi procedure; assay type: in vivo, rat; conditions: IP administration in rats, as free base (Table 7)
Protocol: as §3, §4

O=C(NC1CCN(C2CCCCC2)C1)c1ccc([N+](=O)[O-])cc1 (stereo not drawn) [Example 25]
ED50 [1]: 28 mg/kg

O=C(NC1CCN(c2ccccc2)C1)c1ccc([N+](=O)[O-])cc1 (stereo not drawn) [Example 3, N-(1-Phenyl-3-pyrrolidinyl)-4-nitrobenzamide]
reduction in emesis ([2]; dogs, subcutaneous, dose level of 5 mg./kg. (Table 4 footnote a)): 50%

O=C(NC1CCN(C2CCCCC2)C1)c1ccccc1 (stereo not drawn) [Example 24]
reduction in emesis ([3]; oral, dose level of 5 mg./kg. (Table 5 footnote a)): 60%

O=C(NC1CCN(C2CCCCC2)C1)c1ccc(F)cc1 (stereo not drawn) [Example 10]
ED50 [2]: 0.15 mg/kg

CN(C(=O)c1ccc(N)cc1)C1CCN(C2CCCCC2)C1 (stereo not drawn) [Example 4, 4-Amino-N-(1-cyclohexyl-3-pyrrolidinyl)-N-methylbenzamide Cyclohexanesulfamate]
change in frequency of apomorphine-induced emesis ([2]; subcutaneous 5.0 mg./kg. (3.12 mg./kg. as free base), 1 h before apomorphine 0.1 mg./kg. s.c., 40-minute observation, dogs): -100% | change in apomorphine induced emesis ([3]; oral 2.5 mg./kg. in capsules, 2 h before apomorphine 0.1 mg./kg. s.c.): -95% | Catalepsy (As Free Base), ED50 or other: highest dose without catatonia (catalepsy): no catatonia to 125

O=C(NC1CCN(C2CCCCC2)C1)c1cc([N+](=O)[O-])cc([N+](=O)[O-])c1 (stereo not drawn) [Example 12]
ED50 [2]: 0.15 mg/kg

CN(C(=O)c1ccc([N+](=O)[O-])cc1)C1CCN(C2CCCCC2)C1 (stereo not drawn) [Example 27]
Catalepsy (As Free Base), ED50 or other: highest dose without catatonia (catalepsy): no catatonia to 100 | lethal dose (catalepsy): 100 mg/kg

CC(=O)Nc1ccc(C(=O)NC2CCN(C3CCCCC3)C2)cc1 (stereo not drawn) [Example 7, N-(1-Cyclohexyl-3-pyrrolidinyl)-4-acetamidobenzamide]
ED50 [2]: 2.4 mg/kg

Nc1ccc(C(=O)NC2CCN(C3CCCCC3)C2)cc1 (stereo not drawn) [Example 23]
Catalepsy (As Free Base), percent of rats cataleptic (catalepsy; at 94.2 mg/kg): 33%
